{
  "source": "paper PMC12217481",
  "about": "“Structure and mechanism of taniborbactam inhibition of the cefepime-hydrolyzing, partial R2-loop deletion Pseudomonas-derived cephalosporinase variant PDC-88” (Antimicrobial Agents and Chemotherapy, 2025)",
  "key": {"PDC-88": {"molecular_target": "T1, PDC-88 (Pseudomonas aeruginosa, UniProt P24735, DEL316-317/G27D/G391A/T105A/V205L/V356I)", "T1 construct": "NdeI 5′-[…]-3ʹ and BamHI 5ʹ-[…]-3ʹ; His tag removed) (N); made in house; host or cells: E. coli BL21-CodonPlus (DE3)-RP, pET24a(+)", "test": "Timed ESI-MS of acyl-enzyme formation, PDC-88", "assay_type": "biochemical", "details": "timed ESI-MS, 1 to 30 min (ATM to 60 min)", "experimental": "(§1) Timed ESI-MS experiments allow tracking of the reaction over time and determination of product modification, enabling the elucidation of mechanistic detail. Time courses were collected for both PDC-3 and PDC-88 with FEP (Fig. 4), CAZ (Fig. S1), TOL (Fig. S2), and ATM (Fig. S3). Substrate modification (here, loss of the R2 group) was determined based on differences between masses of apo and acyl-enzyme peaks (Fig. S4). […] Based on the differences in mass between the apo enzyme peaks, the acyl-enzyme peaks, and the molecular masses of each substrate, the mass of the adducts was determined and used to predict any portion of the substrate molecule that might be lost during the reaction (Fig. S4). As expected ([26][–][28]), all three cephalosporin antibiotics (FEP, CAZ, and TOL) lost their R2 groups during the reaction, while ATM (the sole monobactam) maintained its initial mass.\n(§2) Five micrograms of PDC-3 or PDC-88 was incubated at the indicated molar ratio (1:2 to 1:100 PDC:β-lactam) in a total volume of 20 µL in 1× PBS at pH 7.4 at room temperature for the duration of the indicated time points. Reactions were quenched with the addition of 10 µL acetonitrile and added to 1 mL of 0.1% formic acid in water.\n(§3) Data were collected using a Waters Synapt G2-Si quadrupole time-of-flight (Q-TOF) mass spectrometer and Waters Acquity UPLC BEH C18 1.7 µm column (2.1 by 100 mm). MassLynx V4.1 was used to deconvolute protein peaks. The tune settings for each sample were as follows: capillary voltage of 3.5 kV, sampling cone voltage of 35 V, source offset of 35 V, source temperature of 100°C, desolvation temperature of 500°C, cone gas flow rate of 100 L/h, desolvation gas flow rate of 800 L/h, and nebulizer bar at 6.0. Mobile phase A was 0.1% formic acid in water. Mobile phase B was 0.1% formic acid in acetonitrile. The mass accuracy of this system is ±5 Da."}, "[1]": {"tested_on": "E. coli DH10B/pTU628 (PDC-91)", "test": "Broth microdilution MIC, isogenic E. coli expressing PDC-91", "assay_type": "cell-based", "details": "Escherichia coli", "experimental": "(§4) Genetic constructs used for minimum inhibitory concentration (MIC) testing were designed by Venatorx Pharmaceuticals and codon-optimized for use in E. coli and synthesized by Twist Bioscience as described previously ([9]). […] DH10B cells expressing an empty pET24a(+) vector (Novagen) were also grown, and the plasmid purified. Both pCR4-TOPO-PDC-88 and empty pET24a(+) were cut with BamHI and NdeI, the digests run on low-melting point agarose gels, and the bands of interest excised and ligated to yield a PDC-88 expressing pET24a(+) construct with the His tag removed. The PDC-3 expression construct was created in a similar manner but starting with a previously described pBC SK(−) vector ([42]). The final plasmids were grown in E. coli DH10B cells and purified.\n(§5) Modal broth microdilution MICs (or median broth microdilution MICs where appropriate) were determined in accordance with Clinical and Laboratory Standards Institute (CLSI) M07 guidelines ([43]). Isogenic E. coli DH10B cells expressing the abovementioned plasmid-encoded PDC constructs were used. […] CLSI quality control strains Escherichia coli NCTC 13353, E. coli ATCC 35218, and Klebsiella pneumoniae ATCC 700603 were used during testing ([24])."}, "E. coli NCTC 13353": {"tested_on": "E. coli NCTC 13353", "test": "Broth microdilution MIC, CLSI quality control strain", "assay_type": "cell-based", "details": "Escherichia coli", "experimental": "as §5"}, "P. aeruginosa isolates": {"tested_on": "P. aeruginosa isolates", "details": "200 well-characterized P. aeruginosa isolates; cited from earlier work"}, "[2]": {"tested_on": "E. coli DH10B/pTU629 (PDC-92)", "test": "Broth microdilution MIC, isogenic E. coli expressing PDC-92", "assay_type": "cell-based", "details": "Escherichia coli", "experimental": "as §4, §5"}, "[3]": {"tested_on": "E. coli DH10B/pTU625 (PDC-88)", "test": "Broth microdilution MIC, isogenic E. coli expressing PDC-88", "assay_type": "cell-based, Escherichia coli", "details": "for MIC: Escherichia coli", "experimental": "as §4, §5"}, "[4]": {"tested_on": "E. coli DH10B/pTU606 (PDC-1)", "test": "Broth microdilution MIC, isogenic E. coli expressing PDC-1", "assay_type": "cell-based", "details": "Escherichia coli", "experimental": "as §4, §5"}, "[5]": {"tested_on": "E. coli DH10B/pTU501 (vector)", "test": "Broth microdilution MIC, isogenic E. coli empty vector control", "assay_type": "cell-based", "details": "Escherichia coli", "experimental": "as §4, §5"}, "PDC-3": {"molecular_target": "T2, PDC-3 (Pseudomonas aeruginosa, UniProt P24735, T105A)", "T2 construct": "The PDC-3 expression construct was created in a similar manner but starting with a previously described pBC SK(−) vector; made in house; host or cells: E. coli BL21-CodonPlus (DE3)-RP, pET24a(+)", "test": "Timed ESI-MS of acyl-enzyme formation, PDC-3", "assay_type": "biochemical", "details": "timed ESI-MS, 1 to 30 min (ATM to 60 min)", "experimental": "as §1, §2, §3"}, "[6]": {"tested_on": "E. coli DH10B/pTU627 (PDC-90)", "test": "Broth microdilution MIC, isogenic E. coli expressing PDC-90", "assay_type": "cell-based", "details": "Escherichia coli", "experimental": "as §4, §5"}, "[7]": {"tested_on": "E. coli DH10B/pTU609 (PDC-3)", "test": "Broth microdilution MIC, isogenic E. coli expressing PDC-3", "assay_type": "cell-based", "details": "Escherichia coli", "experimental": "as §4, §5"}},
  "note": "Like-named read-outs stand apart in the source and are kept apart here.",
  "data": [
    {"smiles": "CO/N=C(\\C(=O)N[C@@H]1C(=O)N2C(C(=O)[O-])=C(C[N+]3(C)CCCC3)CS[C@H]12)c1csc(N)n1", "note": "[FEP, cefepime]", "values": [
      {"measurement": "acyl-enzyme complex formation and deacylation", "setting": "PDC-88", "result": "formed an acyl-enzyme complex with FEP, followed by relatively quick deacylation"},
      {"measurement": "MIC", "setting": "[1]; read-out: MIC FEP AVI", "result": 0.5, "unit": "µg/mL"},
      {"measurement": "MIC", "setting": "[1]; read-out: MIC FEP TZB", "result": 32, "unit": "µg/mL"},
      {"measurement": "MIC", "setting": "[1]; E. coli DH10B/pTU628 (PDC-91), FEP with TAN at constant 4 µg/mL, read-out: MIC FEP TAN", "result": 0.5, "unit": "µg/mL"},
      {"measurement": "MIC", "setting": "[1]; E. coli DH10B/pTU628 (PDC-91), read-out: MIC FEP Alone", "result": 32, "unit": "µg/mL"},
      {"measurement": "MIC", "setting": "E. coli NCTC 13353; NCTC13353, read-out: MIC FEP Alone", "result": 64, "unit": "µg/mL"},
      {"measurement": "MIC", "setting": "E. coli NCTC 13353; NCTC13353, read-out: MIC FEP TAN", "result": 0.12, "unit": "µg/mL"},
      {"measurement": "susceptibility of isolates", "setting": "P. aeruginosa isolates", "result": 1.5, "unit": "%"},
      {"measurement": "MIC", "setting": "[2]; read-out: MIC FEP AVI", "result": 0.5, "unit": "µg/mL"},
      {"measurement": "MIC", "setting": "[2]; read-out: MIC FEP TZB", "result": 32, "unit": "µg/mL"},
      {"measurement": "MIC", "setting": "[2]; E. coli DH10B/pTU629 (PDC-92), FEP with TAN at constant 4 µg/mL, read-out: MIC FEP TAN", "result": 0.25, "unit": "µg/mL"},
      {"measurement": "MIC", "setting": "[2]; E. coli DH10B/pTU629 (PDC-92), read-out: MIC FEP Alone", "result": 64, "unit": "µg/mL"},
      {"measurement": "MIC", "setting": "[3]; read-out: MIC FEP AVI", "result": 0.25, "unit": "µg/mL"},
      {"measurement": "MIC", "setting": "[3]; read-out: MIC FEP TZB", "result": 16, "unit": "µg/mL"},
      {"measurement": "MIC", "setting": "[3]; E. coli DH10B/pTU625 (PDC-88), FEP with TAN at constant 4 µg/mL, read-out: MIC FEP TAN", "result": 0.25, "unit": "µg/mL"},
      {"measurement": "MIC", "setting": "[3]; E. coli DH10B/pTU625 (PDC-88), read-out: MIC FEP Alone", "result": 32, "unit": "µg/mL"},
      {"measurement": "increase of cefepime MIC, PDC-88 compared to PDC-3", "setting": "[3]; {}", "result": 16, "unit": "fold"},
      {"measurement": "MIC", "setting": "[4]; read-out: MIC FEP TZB", "result": 2, "unit": "µg/mL"},
      {"measurement": "MIC", "setting": "[4]; E. coli DH10B/pTU606 (PDC-1), read-out: MIC FEP Alone", "result": 2, "unit": "µg/mL"},
      {"measurement": "MIC", "setting": "[5]; read-out: MIC FEP AVI", "result": 0.12, "unit": "µg/mL"},
      {"measurement": "MIC", "setting": "[5]; read-out: MIC FEP Alone", "result": 0.12, "unit": "µg/mL"},
      {"measurement": "MIC", "setting": "[5]; read-out: MIC FEP TAN", "result": 0.12, "unit": "µg/mL"},
      {"measurement": "MIC", "setting": "[5]; read-out: MIC FEP TZB", "result": 0.12, "unit": "µg/mL"},
      {"measurement": "acyl-enzyme complex formation and deacylation", "setting": "PDC-3", "result": "did not form an acyl-enzyme complex"},
      {"measurement": "MIC", "setting": "[6]; read-out: MIC FEP AVI", "result": 0.5, "unit": "µg/mL"},
      {"measurement": "MIC", "setting": "[6]; read-out: MIC FEP TZB", "result": 32, "unit": "µg/mL"},
      {"measurement": "MIC", "setting": "[6]; E. coli DH10B/pTU627 (PDC-90), FEP with TAN at constant 4 µg/mL, * median value reported, read-out: MIC FEP TAN", "result": 0.5, "unit": "µg/mL"},
      {"measurement": "MIC", "setting": "[6]; E. coli DH10B/pTU627 (PDC-90), read-out: MIC FEP Alone", "result": 64, "unit": "µg/mL"},
      {"measurement": "MIC", "setting": "[7]; read-out: MIC FEP AVI", "result": 0.25, "unit": "µg/mL"},
      {"measurement": "MIC", "setting": "[7]; read-out: MIC FEP TZB", "result": 2, "unit": "µg/mL"},
      {"measurement": "MIC", "setting": "[7]; E. coli DH10B/pTU609 (PDC-3), FEP with TAN at constant 4 µg/mL, read-out: MIC FEP TAN", "result": 0.25, "unit": "µg/mL"},
      {"measurement": "MIC", "setting": "[7]; E. coli DH10B/pTU609 (PDC-3), read-out: MIC FEP Alone", "result": 2, "unit": "µg/mL"}
    ]}
  ]
}
